{"source": "patent US11013844B2", "about": "“Treatment device for plasma virus inactivation” (City of Hope, priority 2014, dated 2021)", "origin": "cited, not measured here", "settings": "within 6 days"}
{"smiles": "CN(C)c1ccc2nc3ccc(N(C)C)cc3[s+]c2c1.[Cl-]", "note": "[methylene blue, 3,7-bis(dimethylamino)phenothiazin-5-ium chloride]", "values": [{"measurement": "methylene blue drained through urine", "value": 74, "unit": "%"}, {"measurement": "part drained through urine in the original form", "setting": "the other is white methylene blue", "value": 22, "unit": "%"}]}
